Laboratory results reported in patent US10259807B2, “1-(piperazin-1-yl)-2-([1,2,4]triazol-1-yl)-ethanone derivatives” (Idorsia Pharmaceuticals Ltd., priority 2013, dated 2019).

Assays:
human CXCR3A = target: T1, human CXCR3A (Homo sapiens, UniProt P49682); assay: FLIPR assay (CXCL10-induced calcium signal in CHO-K1 cells); format: cell-based; settings: CHO-K1 cells expressing human CXCR3A coupled to Galpha(16); CXCL10 agonist 20 nM; mean values
T1 construct: expressed in transfected cells; host or cells: CHO-K1
T1 sequence (P49682 1-368): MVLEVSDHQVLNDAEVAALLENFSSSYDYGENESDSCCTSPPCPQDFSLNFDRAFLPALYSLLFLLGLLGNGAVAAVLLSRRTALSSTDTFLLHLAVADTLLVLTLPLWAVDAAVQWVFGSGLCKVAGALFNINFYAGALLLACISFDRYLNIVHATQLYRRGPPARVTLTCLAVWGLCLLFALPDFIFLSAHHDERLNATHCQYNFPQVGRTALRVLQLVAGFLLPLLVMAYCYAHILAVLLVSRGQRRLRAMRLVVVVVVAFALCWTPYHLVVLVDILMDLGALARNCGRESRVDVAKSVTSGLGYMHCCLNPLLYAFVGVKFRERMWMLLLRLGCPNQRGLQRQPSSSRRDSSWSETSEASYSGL
Experimental: A) FLIPR assay: The bioactivity of compounds is tested in a fluorometric imaging plate reader (FLIPR: Molecular Devices) using engineered CHO-K1 cells expressing the human CXCR3A (GenBank: AY242128) coupled to a G protein (Galpha(16)). Cells are plated the day prior to bioassay in F12 medium supplemented with 10% FBS and G418 and hygromycin antibiotics to maintain recombinant selection. […] Cells are washed free of excess dye and 60 microliter of wash buffer is added. Stock solutions of test compounds are made up at a concentration of 10 mM in DMSO, and serially diluted in dilution buffer to concentrations required for inhibition dose response curves. After a 10 minute incubation period at 37° C., 10 microliters of each compound dilution are transferred from a compound plate to the plate containing the recombinant cells in the FLIPR instrument according to the manufacturer's instructions. Following basal readings, 10 microliter CXCL10 agonist at a concentration of 20 nM (from Peprotech) is added, again using the FLIPR instrument. Changes in fluorescence are monitored before and after addition of the test compounds. Emission peak values above base level after CXCL10 addition are exported after base line subtraction. The program XLfit is used to fit the data to a single site dose response curve and to calculate IC50 values. The calculated IC50 values may fluctuate depending on the daily assay performance. Fluctuations of this kind are known to those skilled in the art.

hERG K channel = target: T2, hERG K channel (Homo sapiens, UniProt Q12809); assay: hERG Q-Patch assay; format: cell-based; settings: CHO cells expressing hERG, K+ tail current 3 min after application, mean of two or three experiments
T2 construct: host or cells: CHO
Experimental: B) hERG Q-Patch assay: Compounds are evaluated for block of the hERG K channel using CHO cells stably expressing the hERG gene (accession number U04270, bSys, Witterswil. Switzerland) and the Patch robotic platform (Sophion, Ballerup, Denmark) in single-cell mode at room temperature. […] When the cells are ˜80% confluent (every 2-3 days), they are either split for further culture or used for electrophysiology. […] Cells are kept in suspension medium at 32-35° C. in the QPatch robot until use, at which time aliquots are transferred to the extracellular solution (in mM: NaCl 150; KCl 4; CaCl2 1.2; MgCl2 1; HEPES 10; pH 7.4 with NaOH) containing 0.3% v/v DMSO and applied to the test plates. K^+ currents are measured with the patch-voltage-clamp technique in the whole-cell configuration with the internal solution (in […]: KCl, 140; NaCl, 10; MgCl2, 1; HEPES, 10; EGTA, 5; pH=7.2 with KOH). […] K^+tail currents are produced from a holding voltage of −80 mV by a 500-ms depolarization to +20 mV followed by a 500-ms repolarization to −40 mV; tail current amplitudes are measured at the end of the repolarization to −40 mV. The pulse pattern is repeated every 10 sec during the experiment, baseline K^+ current is measured after 3 min in extracellular solution, test-solution containing compound is then applied, and K^+ current in presence of compound is measured 3 minutes after application to the cells.

T2 sequence (Q12809 whole entry): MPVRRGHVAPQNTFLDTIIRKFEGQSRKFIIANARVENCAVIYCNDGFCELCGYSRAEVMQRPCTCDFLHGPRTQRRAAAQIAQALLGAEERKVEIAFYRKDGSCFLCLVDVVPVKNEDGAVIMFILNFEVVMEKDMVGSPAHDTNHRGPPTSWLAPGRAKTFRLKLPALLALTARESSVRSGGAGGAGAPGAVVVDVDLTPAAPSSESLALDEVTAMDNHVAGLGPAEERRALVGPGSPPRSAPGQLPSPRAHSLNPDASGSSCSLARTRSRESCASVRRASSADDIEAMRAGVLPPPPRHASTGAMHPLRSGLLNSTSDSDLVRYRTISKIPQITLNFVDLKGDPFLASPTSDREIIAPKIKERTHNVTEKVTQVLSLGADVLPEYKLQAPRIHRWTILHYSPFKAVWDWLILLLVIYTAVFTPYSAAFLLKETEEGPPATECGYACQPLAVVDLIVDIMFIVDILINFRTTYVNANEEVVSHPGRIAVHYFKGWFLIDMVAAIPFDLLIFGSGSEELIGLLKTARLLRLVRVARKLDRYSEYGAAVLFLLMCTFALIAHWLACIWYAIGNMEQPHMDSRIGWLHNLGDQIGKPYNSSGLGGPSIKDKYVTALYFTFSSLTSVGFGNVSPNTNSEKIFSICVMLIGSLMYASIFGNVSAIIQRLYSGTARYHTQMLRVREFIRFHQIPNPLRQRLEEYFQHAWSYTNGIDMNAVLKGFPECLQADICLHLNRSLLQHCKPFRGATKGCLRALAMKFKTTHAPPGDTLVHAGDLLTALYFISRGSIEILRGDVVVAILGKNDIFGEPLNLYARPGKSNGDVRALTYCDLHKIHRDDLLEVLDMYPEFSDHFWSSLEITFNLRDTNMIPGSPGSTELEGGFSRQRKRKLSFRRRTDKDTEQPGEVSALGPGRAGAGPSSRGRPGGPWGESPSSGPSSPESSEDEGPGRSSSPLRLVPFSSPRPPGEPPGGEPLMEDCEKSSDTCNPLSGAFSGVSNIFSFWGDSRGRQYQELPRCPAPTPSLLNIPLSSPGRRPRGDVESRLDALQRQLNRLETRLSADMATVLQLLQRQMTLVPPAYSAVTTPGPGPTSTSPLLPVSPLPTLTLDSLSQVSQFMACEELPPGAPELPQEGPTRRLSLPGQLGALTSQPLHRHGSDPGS

Compound	IC50 (human CXCR3A)	% block (hERG K channel; concentration 300 nM)	% block (hERG K channel; concentration 3000 nM)
Cc1nc(C(C)(C)O)nn1CC(=O)N1CCN(c2sc(C(F)(F)F)nc2-c2cnc(C(F)(F)F)nc2)C[C@H]1C [Example 48, 2-[3-(1-Hydroxy-1-methyl-ethyl)-5-methyl-[1,2,4]triazol-1-yl]-1-{(R)-2-methyl-4-[2-trifluoromethyl-4-(2-trifluoromethyl-pyrimidin-5-yl)-thiazol-5-yl]-piperazin-1-yl}-ethanone]	4.7 nM	1%	2%
COc1ccc(-c2nc(C(F)(F)F)sc2N2CCN(C(=O)Cn3nc(C)nc3C)[C@H](C)C2)cc1F [Example 10, 2-(3,5-Dimethyl-[1,2,4]triazol-1-yl)-1-{(R)-4-[4-(3-fluoro-4-methoxy-phenyl)-2-trifluoromethyl-thiazol-5-yl]-2-methyl-piperazin-1-yl}-ethanone]	20 nM	7%	20%
CCOc1ccc(-c2nc(C(F)(F)F)sc2N2CCN(C(=O)Cn3nc(C)nc3C)[C@H](C)C2)cc1 [Example 31, 2-(3,5-Dimethyl-[1,2,4]triazol-1-yl)-1-{(R)-4-[4-(4-ethoxy-phenyl)-2-trifluoromethyl-thiazol-5-yl]-2-methyl-piperazin-1-yl}-ethanone]	10 nM	6%	14%
Cc1nc(C)n(CC(=O)N2CCN(c3sc(C(F)(F)F)nc3-c3ccc(OCC(F)(F)F)cc3)C[C@H]2C)n1 [Example 4, 2-(3,5-Dimethyl-[1,2,4]triazol-1-yl)-1-((R)-2-methyl-4-{4-[4-(2,2,2-trifluoro-ethoxy)-phenyl]-2-trifluoromethyl-thiazol-5-yl}-piperazin-1-yl)-ethanone]	12 nM	25%	54%
Cc1nc(CO)nn1CC(=O)N1CCN(c2sc(C(F)(F)F)nc2-c2cnc(C(F)(F)F)nc2)C[C@H]1C [Example 44, 2-(3-Hydroxymethyl-5-methyl-[1,2,4]triazol-1-yl)-1-{(R)-2-methyl-4-[2-trifluoromethyl-4-(2-trifluoromethyl-pyrimidin-5-yl)-thiazol-5-yl]-piperazin-1-yl}-ethanone]	5.1 nM	−3%	−6%
CCc1nc(C)n(CC(=O)N2CCN(c3sc(C(F)(F)F)nc3-c3cnc(C(F)(F)F)nc3)C[C@H]2C)n1 (single isomer, unassigned) [Example 46]	1.6 nM	13%	29%
Cc1nc(C)n(CC(=O)N2CCN(c3sc(C(F)(F)F)nc3-c3ccc(F)cc3)C[C@H]2C)n1 [Example 6, 2-(3,5-Dimethyl-[1,2,4]triazol-1-yl)-1-{(R)-4-[4-(4-fluoro-phenyl)-2-trifluoromethyl-thiazol-5-yl]-2-methyl-piperazin-1-yl}-ethanone]	64 nM	11%	51%
Cc1nc(C)n(CC(=O)N2CCN(c3sc(C(F)(F)F)nc3-c3ccc(OC(C)C)cc3)C[C@H]2C)n1 [Example 2, 2-(3,5-Dimethyl-[1,2,4]triazol-1-yl)-1-{(R)-4-[4-(4-isopropoxy-phenyl)-2-trifluoromethyl-thiazol-5-yl]-2-methyl-piperazin-1-yl}-ethanone]	16 nM	7%	38%
COc1ccc(-c2nc(C(F)(F)F)sc2N2CCN(C(=O)Cn3nc(C)nc3C)[C@H](C)C2)cc1 [Example 1, 2-(3,5-Dimethyl-[1,2,4]triazol-1-yl)-1-{(R)-4-[4-(4-methoxy-phenyl)-2-trifluoromethyl-thiazol-5-yl]-2-methyl-piperazin-1-yl}-ethanone]	111 nM	4%	13%
Cc1nc(C)n(CC(=O)N2CCN(c3sc(C(F)(F)F)nc3-c3ccc4c(c3)OCCO4)C[C@H]2C)n1 [Example 14, 1-{(R)-4-[4-(2,3-Dihydro-benzo[1,4]dioxin-6-yl)-2-trifluoromethyl-thiazol-5-yl]-2-methyl-piperazin-1-yl}-2-(3,5-dimethyl-[1,2,4]triazol-1-yl)-ethanone]	31 nM	5%	14%
CCOc1ncc(-c2nc(C(F)(F)F)sc2N2CCN(C(=O)Cn3nc(C)nc3C)[C@@H](C)C2)cn1 [Example 34, 2-(3,5-Dimethyl-[1,2,4]triazol-1-yl)-1-{(S)-4-[4-(2-ethoxy-pyrimidin-5-yl)-2-trifluoromethyl-thiazol-5-yl]-2-methyl-piperazin-1-yl}-ethanone]	5.7 nM	3%	4%
CCc1nc(C)nn1CC(=O)N1CCN(c2sc(C(F)(F)F)nc2-c2cnc(C(F)(F)F)nc2)C[C@H]1C (single isomer, unassigned) [Example 47]	3.5 nM	5%	18%

Now from value to compound, other results behind:

IC50 (human CXCR3A)	Compound	% block (hERG K channel; concentration 300 nM)	% block (hERG K channel; concentration 3000 nM)
4.6 nM	CCOc1ncc(-c2nc(C(F)(F)F)sc2N2CCN(C(=O)Cn3nc(C)nc3C)CC2)cn1 [Example 35, 2-(3,5-Dimethyl-[1,2,4]triazol-1-yl)-1-{4-[4-(2-ethoxy-pyrimidin-5-yl)-2-trifluoromethyl-thiazol-5-yl]-piperazin-1-yl}-ethanone]	2%	4%
22 nM	Cc1nc(C)n(CC(=O)N2CCN(c3sc(C(F)(F)F)nc3-c3cnc(OC4COC4)nc3)C[C@H]2C)n1 [Example 30, 2-(3,5-Dimethyl-[1,2,4]triazol-1-yl)-1-((R)-2-methyl-4-{4-[2-(oxetan-3-yloxy)-pyrimidin-5-yl]-2-trifluoromethyl-thiazol-5-yl}-piperazin-1-yl)-ethanone]	1%	6%
36 nM	CCc1ccc(-c2nc(C(F)(F)F)sc2N2CCN(C(=O)Cn3nc(C)nc3C)[C@H](C)C2)cc1 [Example 9, 2-(3,5-Dimethyl-[1,2,4]triazol-1-yl)-1-{(R)-4-[4-(4-ethyl-phenyl)-2-trifluoromethyl-thiazol-5-yl]-2-methyl-piperazin-1-yl}-ethanone]	12%	44%
2.8 nM	Cc1nc(C)n(CC(=O)N2CCN(c3sc(C(F)(F)F)nc3-c3cnc(OCC(F)(F)F)nc3)C[C@H]2C)n1 [Example 28, 2-(3,5-Dimethyl-[1,2,4]triazol-1-yl)-1-((R)-2-methyl-4-{4-[2-(2,2,2-trifluoro-ethoxy)-pyrimidin-5-yl]-2-trifluoromethyl-thiazol-5-yl}-piperazin-1-yl)-ethanone]	0%	6%
20 nM	CCOc1ncc(-c2nc(C(F)(F)F)sc2N2CCN(C(=O)Cn3nc(CN(C)C)nc3C)[C@H](C)C2)cn1 [Example 17, 2-(3-Dimethylaminomethyl-5-methyl-[1,2,4]triazol-1-yl)-1-{(R)-4-[4-(2-ethoxy-pyrimidin-5-yl)-2-trifluoromethyl-thiazol-5-yl]-2-methyl-piperazin-1-yl}-ethanone]	13%	26%
41 nM	Cc1nc(C)n(CC(=O)N2CCN(c3sc(C(F)(F)F)nc3-c3cnc(OCCN(C)C)nc3)C[C@H]2C)n1 [Example 26, 1-((R)-4-{4-[2-(2-Dimethylamino-ethoxy)-pyrimidin-5-yl]-2-trifluoromethyl-thiazol-5-yl}-2-methyl-piperazin-1-yl)-2-(3,5-dimethyl-[1,2,4]triazol-1-yl)-ethanone]	−1%	−8%
